# Entries after “also recorded” stand apart in the source; their conditions may differ.
# Test system: CD3+ cells
# Assay: CD3+ cell (T cell) infiltration by immunohistochemistry, acute GVHD mouse model
# Format: in vivo, mice
# Settings: Fosaprepitant 10 mg/mL topically six times a day; day 29; p<0.001
# Protocol: 10-week-old male BALB/C and C57BL/6N mice (Charles River Laboratory, Lecco, Italy) were used for all the experiments (n=5/each group). All mice were free from ocular surface disease at baseline. The housing conditions were controlled (temperature 22° C., light from 07:00-19:00, humidity 50%-60%), and fresh food and water were freely available. The animals were monitored 3 times per week for 28 days post-transplantation for in vivo slit-lamp microscopy imaging, ocular surface score and systemic GVHD score (FIG. 11A). Carbon dioxide inhalation and subsequent cervical dislocation were applied to euthanize the animals. All the experiments were approved by the Animal Care and Use Committee of the IRCCS San Raffaele Scientific Institute, in accordance with the ARVO Statement for the Use of Animals in Ophthalmic and Vision Research.
# Allogenic BMT was conducted using the C57BL/6N and BALB/c mice as transplant donors and recipients, respectively. The recipient mice received total body irradiation (TBI) (900 cGy divided in two fractions) from a Cs source 1 day before the transplantation. The donor C57BL/6N mice were sacrificed on dry ice and they femur and spleen were harvested. The bones were gently crushed manually using a sterile stick, and bone marrow (BM) cells were released by mixing the fragments of bones with RPMI. The suspension of BM cells was filtered to remove the impurities inside. The spleens were also gently crushed into a cell suspension and filtered. Inventors suspended the BM cells and splenic cells with RPMI and adjusted the density of cells to 1×10^6/[…] and 2×10^6/[…], respectively. […]
# Mice were sacrificed 28 days after BM transplantation (Day 29 post irradiation) by carbon dioxide inhalation. […] Following three washes with PBS-T, sections were incubated in anti-goat HRP for 15 minutes and then detected with a goat-on-rodent HRP-Polymer Kit (Biocare Medical). Primary antibody labeling was detected using brown DAB substrate (Vector Laboratories, Burlingame, Calif., USA). […]
smiles,measurement,value
"C[C@@H](O[C@H]1OCCN(Cc2nc(=O)n(P(=O)(O)O)[nH]2)[C@H]1c1ccc(F)cc1)c1cc(C(F)(F)F)cc(C(F)(F)F)c1 [Fosaprepitant, [3-{[(2R,3S)-2-[(1R)-1-[3,5-bis(trifluoromethyl)phenyl]ethoxy]-3-(4-fluorophenyl)morpholin-4-yl]methyl}-5-oxo-2H-1,2,4-triazol-1-yl]phosphonic acid]",CD3+ cells infiltrating the conjunctiva,reduced; also recorded: significantly decreased
same,CD3+ cells infiltrating the cornea,reduced; also recorded: significantly decreased
same,CD3+ cells infiltrating the lacrimal gland,reduced; also recorded: significantly decreased
